Experimental data from patent US9695155B2, “Herbicidal substituted pyrimidinyloxy benzene compounds” (E. I. DU PONT DE NEMOURS AND COMPANY, priority 2013, dated 2017).

How the values were obtained:
fall panicum = experiment: Test E preemergence; format: in vivo, Panicum dichotomiflorum; settings: for Panicum, Fall plant response rating: scale 0 to 100 (0 no effect, 100 complete control); for Plant response rating, Panicum, Fall: scale 0 to 100, 0 no effect, 100 complete control
From the text: (§1) Seeds of plant species selected from corn (Zea mays), soybean (Glycine max), velvetleaf (Abutilon theophrasti), lambsquarters (Chenopodium album), wild poinsettia (Euphorbia heterophylla), palmer pigweed (Amaranthus palmeri), waterhemp (common waterhemp, Amaranthus rudis), surinam grass (Brachiaria decumbens), large (Lg) crabgrass (Digitaria sanguinalis), Brazilian crabgrass (Digitaria horizontalis), fall panicum (Panicum dichotomiflorum), giant foxtail (Setaria faberii), green foxtail (Setaria viridis), goosegrass (Eleusine indica), johnsongrass (Sorghum halepense), ragweed (common ragweed, Ambrosia elatior), barnyardgrass (Echinochloa crus-galli), sandbur (southern sandbur, Cenchrus echinatus), arrowleaf sida (Sida rhombifolia), Italian ryegrass (Lolium multiflorum), dayflower (Virginia (VA) dayflower, Commelina virginica), field bindweed (Convolvulus arvensis), morningglory (Ipomoea coccinea), nightshade (eastern black nightshade, Solanum ptycanthum), kochia (Kochia scoparia), yellow nutsedge (Cyperus esculentus), cocklebur (common cocklebur, Xanthium strumarium), smartweed (ladysthumb smartweed, and hairy beggarticks (Bidens pilosa), were planted into a silt loam soil and treated preemergence with test chemicals formulated in a non-phytotoxic solvent mixture which included a surfactant.
(§2) At the same time, plants from these crop and weed species and also horseweed (Canada horseweed, Conyza canadensis), waterhemp_RES1, (ALS & Triazine resistant common waterhemp, Amaranthus rudis), and waterhemp_RES2, (ALS & HPPD resistant common waterhemp, Amaranthus rudis) were planted in pots containing Redi-Earth® planting medium (Scotts Company, 14111 Scottslawn Road, Marysville, Ohio 43041) comprising spaghnum peat moss, vermiculite, wetting agent and starter nutrients were treated with postemergence applications of test chemicals formulated in the same manner. Plants ranged in height from 2 to 18 cm for postemergence treatments (1- to 4-leaf stage). Treated plants and controls were maintained in a greenhouse for 14 to 21 days, after which time all species were compared to controls and visually evaluated. Plant response ratings, summarized in Table E, are based on a scale of 0 to 100 where 0 is no effect and 100 is complete control. A dash (-) response means no test result.

dayflower = experiment: Test E preemergence; format: in vivo, Commelina virginica; settings: for Dayflower, VA plant response rating: scale 0 to 100 (0 no effect, 100 complete control); for Plant response rating, Dayflower, VA: scale 0 to 100, 0 no effect, 100 complete control
Procedure, shortened: (§3)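 Test chemicals formulated in a non-phytotoxic solvent mixture containing a surfactant were applied preemergence to seeds in silt loam soil or postemergence to plants at the 1- to 4-leaf stage in potting mix. After 14 to 21 days in a greenhouse, injury was visually rated against controls on a 0-100 scale (0 = no effect, 100 = complete control).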

sandbur = experiment: Test E preemergence; format: in vivo, Cenchrus echinatus; settings: for Sandbur plant response rating: scale 0 to 100 (0 no effect, 100 complete control); for Plant response rating, Sandbur: scale 0 to 100, 0 no effect, 100 complete control
From the text: as §1, §2

yellow nutsedge = experiment: Test E preemergence; format: in vivo, Cyperus esculentus; settings: for Nutsedge, Yellow plant response rating: scale 0 to 100 (0 no effect, 100 complete control); for Plant response rating, Nutsedge, Yellow: scale 0 to 100, 0 no effect, 100 complete control
Procedure, shortened: as §3

wild poinsettia = experiment: Test E preemergence; format: in vivo, Euphorbia heterophylla; settings: for Poinsettia, Wild plant response rating: scale 0 to 100 (0 no effect, 100 complete control); for Plant response rating, Poinsettia, Wild: scale 0 to 100, 0 no effect, 100 complete control
Procedure, shortened: as §3

green foxtail = experiment: Test E preemergence; format: in vivo, Setaria viridis; settings: for Foxtail, Green plant response rating: scale 0 to 100 (0 no effect, 100 complete control); for Plant response rating, Foxtail, Green: scale 0 to 100, 0 no effect, 100 complete control
Procedure, shortened: as §3

soybean = experiment: Test E preemergence; format: in vivo, Glycine max; settings: for Soybean plant response rating: scale 0 to 100 (0 no effect, 100 complete control); for Plant response rating, Soybean: scale 0 to 100, 0 no effect, 100 complete control
From the text: as §1, §2

palmer pigweed = experiment: Test E preemergence; format: in vivo, Amaranthus palmeri; settings: for Pigweed, Palmer plant response rating: scale 0 to 100 (0 no effect, 100 complete control); for Plant response rating, Pigweed, Palmer: scale 0 to 100, 0 no effect, 100 complete control
From the text: as §1, §2

Italian ryegrass [1] = experiment: Test A postemergence; format: in vivo, Lolium multiflorum; settings: 0 to 100 scale, 0 no effect, 100 complete control
Procedure, shortened: (§4)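 Scoring: eye-based comparison with untreated controls, 0 for no effect through 100 for complete control, at about day 10. Treatments: directed soil spray preemergence; foliar spray postemergence on 2–10 cm plants at the one- to two-leaf stage. Medium: loam soil with sand.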

ragweed = experiment: Test E preemergence; format: in vivo, Ambrosia elatior; settings: for Ragweed plant response rating: scale 0 to 100 (0 no effect, 100 complete control); for Plant response rating, Ragweed: scale 0 to 100, 0 no effect, 100 complete control
Procedure, shortened: as §3

blackgrass = experiment: Test A postemergence; format: in vivo, Alopecurus myosuroides; settings: 0 to 100 scale, 0 no effect, 100 complete control
Procedure, shortened: as §4

Italian ryegrass [2] = experiment: Test A preemergence; format: in vivo, Lolium multiflorum
Procedure, shortened: as §4

Structure (SMILES): FCc1cccc(Oc2ncc(Cl)cn2)c1-n1cc(Cl)cn1 [Compound 250]
- Panicum, Fall plant response rating (fall panicum; 31 g ai/ha): 0
- Panicum, Fall plant response rating (fall panicum; 62 g ai/ha): 0
- Plant response rating, Panicum, Fall (fall panicum; 125 g ai/ha): 100
- Dayflower, VA plant response rating (dayflower; 16 g ai/ha): 0
- Dayflower, VA plant response rating (dayflower; 31 g ai/ha): 0
- Dayflower, VA plant response rating (dayflower; 62 g ai/ha): 50
- Plant response rating, Dayflower, VA (dayflower; 125 g ai/ha): 70
- Sandbur plant response rating (sandbur; 31 g ai/ha): 0
- Sandbur plant response rating (sandbur; 62 g ai/ha): 0
- Plant response rating, Sandbur (sandbur; 125 g ai/ha): 25
- Nutsedge, Yellow plant response rating (yellow nutsedge; 31 g ai/ha): 0
- Nutsedge, Yellow plant response rating (yellow nutsedge; 62 g ai/ha): 0
- Plant response rating, Nutsedge, Yellow (yellow nutsedge; 125 g ai/ha): 40
- Poinsettia, Wild plant response rating (wild poinsettia; 31 g ai/ha): 0
- Poinsettia, Wild plant response rating (wild poinsettia; 62 g ai/ha): 0
- Plant response rating, Poinsettia, Wild (wild poinsettia; 125 g ai/ha): 20
- Foxtail, Green plant response rating (green foxtail; 16 g ai/ha): 0
- Foxtail, Green plant response rating (green foxtail; 31 g ai/ha): 0
- Foxtail, Green plant response rating (green foxtail; 62 g ai/ha): 0
- Plant response rating, Foxtail, Green (green foxtail; 125 g ai/ha): 90
- Soybean plant response rating (soybean; 31 g ai/ha): 0
- Soybean plant response rating (soybean; 62 g ai/ha): 15
- Plant response rating, Soybean (soybean; 125 g ai/ha): 65
- Pigweed, Palmer plant response rating (palmer pigweed; 31 g ai/ha): 0
- Pigweed, Palmer plant response rating (palmer pigweed; 62 g ai/ha): 0
- Plant response rating, Pigweed, Palmer (palmer pigweed; 125 g ai/ha): 100
- Plant response rating, Ryegrass, Italian (Italian ryegrass [1]; 31 g ai/ha): 0
- Plant response rating, Ryegrass, Italian (Italian ryegrass [1]; 125 g ai/ha): 0
- Ragweed plant response rating (ragweed; 31 g ai/ha): 0
- Ragweed plant response rating (ragweed; 62 g ai/ha): 0
- Plant response rating, Ragweed (ragweed; 125 g ai/ha): 0
- Plant response rating, Blackgrass (blackgrass; 31 g ai/ha): 70
- Plant response rating, Blackgrass (blackgrass; 125 g ai/ha): 100
- Plant response rating, Ryegrass, Italian (Italian ryegrass [2]; 31 g ai/ha, 0 to 100 scale where 0 is no effect and 100 is complete control, visual, approximately 10 days): 0
- Ryegrass, Italian plant response rating (0 to 100 scale) (Italian ryegrass [2]; 125 g ai/ha): 0

Structure (SMILES): N#Cc1cccc(Oc2ncc(F)cn2)c1-n1cc(Cl)cn1 [Compound 73]
- Panicum, Fall plant response rating (fall panicum; 16 g ai/ha): 0
- Panicum, Fall plant response rating (fall panicum; 31 g ai/ha): 40
- Panicum, Fall plant response rating (fall panicum; 62 g ai/ha): 98
- Plant response rating, Panicum, Fall (fall panicum; 125 g ai/ha): 98
- Plant response rating, Panicum, Fall (fall panicum; 250 g ai/ha): 100
- Dayflower, VA plant response rating (dayflower; 16 g ai/ha): 0
- Dayflower, VA plant response rating (dayflower; 31 g ai/ha): 0
- Dayflower, VA plant response rating (dayflower; 62 g ai/ha): 25
- Plant response rating, Dayflower, VA (dayflower; 125 g ai/ha): 65
- Plant response rating, Dayflower, VA (dayflower; 250 g ai/ha): 95
- Sandbur plant response rating (sandbur; 16 g ai/ha): 10
- Sandbur plant response rating (sandbur; 31 g ai/ha): 20
- Sandbur plant response rating (sandbur; 62 g ai/ha): 20
- Plant response rating, Sandbur (sandbur; 125 g ai/ha): 30
- Plant response rating, Sandbur (sandbur; 250 g ai/ha): 35
- Nutsedge, Yellow plant response rating (yellow nutsedge; 16 g ai/ha): 0
- Nutsedge, Yellow plant response rating (yellow nutsedge; 31 g ai/ha): 0
- Nutsedge, Yellow plant response rating (yellow nutsedge; 62 g ai/ha): 50
- Plant response rating, Nutsedge, Yellow (yellow nutsedge; 125 g ai/ha): 40
- Plant response rating, Nutsedge, Yellow (yellow nutsedge; 250 g ai/ha): 30
- Poinsettia, Wild plant response rating (wild poinsettia; 16 g ai/ha): 0
- Poinsettia, Wild plant response rating (wild poinsettia; 31 g ai/ha): 30
- Poinsettia, Wild plant response rating (wild poinsettia; 62 g ai/ha): 35
- Plant response rating, Poinsettia, Wild (wild poinsettia; 125 g ai/ha): 65
- Plant response rating, Poinsettia, Wild (wild poinsettia; 250 g ai/ha): 85
- Foxtail, Green plant response rating (green foxtail; 16 g ai/ha): 0
- Foxtail, Green plant response rating (green foxtail; 31 g ai/ha): 20
- Foxtail, Green plant response rating (green foxtail; 62 g ai/ha): 70
- Plant response rating, Foxtail, Green (green foxtail; 125 g ai/ha): 80
- Plant response rating, Foxtail, Green (green foxtail; 250 g ai/ha): 95
- Soybean plant response rating (soybean; 16 g ai/ha): 15
- Soybean plant response rating (soybean; 31 g ai/ha): 25
- Soybean plant response rating (soybean; 62 g ai/ha): 25
- Plant response rating, Soybean (soybean; 125 g ai/ha): 70
- Plant response rating, Soybean (soybean; 250 g ai/ha): 80
- Pigweed, Palmer plant response rating (palmer pigweed; 16 g ai/ha): 0
- Pigweed, Palmer plant response rating (palmer pigweed; 31 g ai/ha): 75
- Pigweed, Palmer plant response rating (palmer pigweed; 62 g ai/ha): 100
- Plant response rating, Pigweed, Palmer (palmer pigweed; 125 g ai/ha): 100
- Plant response rating, Pigweed, Palmer (palmer pigweed; 250 g ai/ha): 100
- Ragweed plant response rating (ragweed; 16 g ai/ha): 0
- Ragweed plant response rating (ragweed; 31 g ai/ha): 5
- Ragweed plant response rating (ragweed; 62 g ai/ha): 30
- Plant response rating, Ragweed (ragweed; 125 g ai/ha): 60
- Plant response rating, Ragweed (ragweed; 250 g ai/ha): 80
